Values belong to the compound of their own block, whether it stands above or below them. The source made the active and inactive calls. No cut-off for these calls is given here.
Tests used:
NCI-H1299 [1] = test: Dark toxicity against human NCI-H1299 cells assessed as reduction in metabolic activity at <1 uM incubated for 4 hrs by MTT assay; format: cell-based; details: nci-h1299, 4 h
[2] = Induction of singlet oxygen generation in THF assessed as singlet oxygen quantum yield by comparative photoluminescence method; format: functional
[3] = Phototoxicity against human A549 cells assessed as reduction in cell viability preincubated for 24 hrs followed by 7.5 to 10 mW/cm^-2 red light irradiation and measured after 24 hrs by MTT assay; format: functional, cell-based; details: A549, light or radiation study
[4] = Phototoxicity against human NCI-H1299 cells assessed as reduction in cell viability preincubated for 24 hrs followed by 7.5 to 10 mW/cm^-2 red light irradiation and measured after 24 hrs by MTT assay; format: functional, cell-based; details: NCI-H1299, light or radiation study
A549 [5] = test: Dark toxicity against human A549 cells assessed as reduction in metabolic activity at <1 uM incubated for 4 hrs by MTT assay; format: cell-based; details: a549, 4 h
[6] = Fluorescence property of the compound in THF assessed as fluorescence quantum yield by photoluminescence quantum yield spectrometer; format: physicochemical
[7] = Fluorescence property of the compound in DMSO assessed as fluorescence quantum yield by photoluminescence quantum yield spectrometer; format: physicochemical
[8] = Fluorescence property of the compound in toluene assessed as fluorescence quantum yield by photoluminescence quantum yield spectrometer; format: physicochemical
A549 [9] = test: Dark toxicity against human A549 cells assessed as reduction in metabolic activity at 10 uM incubated for 4 hrs by MTT assay; format: cell-based; set-up: scale not given: the % may be the effect or the level left; details: a549, 4 h
NCI-H1299 [10] = test: Dark toxicity against human NCI-H1299 cells assessed as reduction in metabolic activity at 10 uM incubated for 4 hrs by MTT assay; format: cell-based; set-up: scale not given: the % may be the effect or the level left; details: nci-h1299, 4 h
A549 [11] = test: Induction of apoptosis in human A549 cells assessed as reduction in viable cells at 500 nM preincubated for 24 hrs followed by irradiated with 7.5 to 10 mW/cm^-2 red light for 24 hrs by Annexin V and propidium iodide staining based flow cytometry relative to control; format: functional; details: time 48 hrs
A549 [12] = test: Induction of apoptosis in human A549 cells assessed as reduction in viable cells at 100 nM preincubated for 24 hrs followed by irradiated with 7.5 to 10 mW/cm^-2 red light for 24 hrs by Annexin V and propidium iodide staining based flow cytometry relative to control; format: functional; details: time 48 hrs
A549 [13] = test: Reduction in hydrogen peroxide production in human A549 cells irradiated with 7.5 to 10 mW/cm^-2 red light for 24 hrs at 100 to 250 nM measured after 2 hrs by DHE and DCFH2-DA staining based fluorimetric analysis; format: functional, cell-based; details: dose 100-250 nM
NCI-H1299 [14] = test: Induction of apoptosis in human NCI-H1299 cells assessed as early apoptotic cells at 500 nM preincubated for 24 hrs followed by irradiated with 7.5 to 10 mW/cm^-2 red light for 24 hrs by Annexin V and propidium iodide staining based flow cytometry relative to control; format: functional; details: time 48 hrs
A549 [15] = test: Induction of apoptosis in human A549 cells assessed as late apoptotic cells at 500 nM preincubated for 24 hrs followed by irradiated with 7.5 to 10 mW/cm^-2 red light for 24 hrs by Annexin V and propidium iodide staining based flow cytometry relative to control; format: functional; details: time 48 hrs
NCI-H1299 [16] = test: Induction of apoptosis in human NCI-H1299 cells assessed as reduction in viability at 100 to 500 nM preincubated for 24 hrs followed by irradiated with 7.5 to 10 mW/cm^-2 red light for 24 hrs by Annexin V and propidium iodide staining based flow cytometry relative to control; format: functional; details: dose 100-500 nM, time 48 hrs
Mitochondrial membrane [17] = test: Induction of mitochondrial membrane depolarization in human A549 cells assessed as increase in monomer to aggregate ratio at 250 nM preincubated for 15 mins irradiated with 7.5 to 10 mW/cm^-2 red light by JC-1 fluorescent probe based flow cytometric analysis (reference value: 24.7+/-6.9); format: cell membranes
NCI-H1299 [18] = test: Induction of apoptosis in human NCI-H1299 cells assessed as appearance of necrosis at 100 to 250 nM preincubated for 24 hrs followed by irradiated with 7.5 to 10 mW/cm^-2 red light for 24 hr by May-Grunwald/Giemsa staining by light microscopic analysis; format: functional, cell-based; details: dose 100-250 nM, time 48.0 hrs
NCI-H1299 [19] = test: Reduction in hydrogen peroxide production in human NCI-H1299 cells irradiated with 7.5 to 10 mW/cm^-2 red light for 24 hrs at 0 to 250 nM incubated for 2 hrs by DHE and DCFH2-DA staining based fluorimetric analysis; format: functional, cell-based; details: dose 0-250 nM
A549 [20] = test: Induction of apoptosis in human A549 cells assessed as increase in apoptotic cells at 100 nM preincubated for 24 hrs followed by irradiated with 7.5 to 10 mW/cm^-2 red light for 24 hrs by Annexin V and propidium iodide staining based flow cytometry relative to control; format: functional; details: time 48 hrs
NCI-H1299 [21] = test: Induction of apoptosis in human NCI-H1299 cells assessed as late apoptotic/necrotic cells at 100 nM preincubated for 24 hrs followed by irradiated with 7.5 to 10 mW/cm^-2 red light for 24 hrs by Annexin V and propidium iodide staining based flow cytometry relative to control; format: functional; details: time 48 hrs
A549 [22] = test: Induction of apoptosis in human A549 cells assessed as necrotic cells at 500 nM preincubated for 24 hrs followed by irradiated with 7.5 to 10 mW/cm^-2 red light for 24 hrs by Annexin V and propidium iodide staining based flow cytometry relative to control; format: functional; details: time 48 hrs
Mitochondrial membrane [23] = test: Induction of mitochondrial membrane depolarization in human NCI-H1299 cells assessed as increase in monomer to aggregate ratio at 100 nM preincubated for 15 mins irradiated with 7.5 to 10 mW/cm^-2 red light by JC-1 fluorescent probe based flow cytometric analysis (reference value: 1.0+/-0.00); format: cell membranes
A549 [24] = test: Induction of apoptosis in human A549 cells assessed as increase in apoptotic cells at 500 nM preincubated for 24 hrs followed by irradiated with 7.5 to 10 mW/cm^-2 red light for 24 hrs by Annexin V and propidium iodide staining based flow cytometry relative to control; format: functional; details: time 48 hrs
Mitochondrial membrane [25] = test: Induction of mitochondrial membrane depolarization in human A549 cells assessed as increase in monomer to aggregate ratio at 100 nM preincubated for 15 mins irradiated with 7.5 to 10 mW/cm^-2 red light by JC-1 fluorescent probe based flow cytometric analysis (reference value: 24.7+/-6.9); format: cell membranes
NCI-H1299 [26] = test: Induction of apoptosis in human NCI-H1299 cells assessed as early apoptotic cells at 100 nM preincubated for 24 hrs followed by irradiated with 7.5 to 10 mW/cm^-2 red light for 24 hrs by Annexin V and propidium iodide staining based flow cytometry relative to control; format: functional; details: time 48 hrs
A549 [27] = test: Induction of superoxide anion production in human A549 cells irradiated with 7.5 to 10 mW/cm^-2 red light for 24 hrs at 100 to 250 nM incubated for 2 hrs by DHE and DCFH2-DA staining based fluorimetric analysis; format: functional, cell-based; details: dose 100-250 nM
A549 [28] = test: Photocytotoxicity in human A549 cells assessed as metabolic activity in presence of sodium azide measured preincubated for 24 hrs followed by irradiated with 7.5 to 10 mW/cm^-2 red light for 24 hrs by MTT assay; format: functional, cell-based; details: A549, light or radiation study
NCI-H1299 [29] = test: Induction of superoxide anion production in human NCI-H1299 cells irradiated with 7.5 to 10 mW/cm^-2 red light for 24 hrs at 100 to 250 nM incubated for 2 hrs by DHE and DCFH2-DA staining based fluorimetric analysis; format: functional, cell-based; details: dose 100-250 nM
NCI-H1299 [30] = test: Induction of apoptosis in human NCI-H1299 cells assessed as late apoptotic/necrotic cells at 500 nM preincubated for 24 hrs followed by irradiated with 7.5 to 10 mW/cm^-2 red light for 24 hrs by Annexin V and propidium iodide staining based flow cytometry relative to control; format: functional; details: time 48 hrs
A549 [31] = test: Induction of apoptosis in human A549 cells assessed as late apoptotic cells at 100 nM preincubated for 24 hrs followed by irradiated with 7.5 to 10 mW/cm^-2 red light for 24 hrs by Annexin V and propidium iodide staining based flow cytometry relative to control; format: functional; details: time 48 hrs
Mitochondrial membrane [32] = test: Induction of mitochondrial membrane depolarization in human NCI-H1299 cells assessed as increase in monomer to aggregate ratio at 250 nM preincubated for 15 mins irradiated with 7.5 to 10 mW/cm^-2 red light by JC-1 fluorescent probe based flow cytometric analysis (reference value: 1.0+/-0.00); format: cell membranes
A549 [33] = test: Induction of apoptosis in human A549 cells assessed as necrotic cells at 100 nM preincubated for 24 hrs followed by irradiated with 7.5 to 10 mW/cm^-2 red light for 24 hrs by Annexin V and propidium iodide staining based flow cytometry relative to control; format: functional; details: time 48 hrs

Activity [8]: 0.197
Structure (SMILES): CC(C)(C)OC(=O)N/N=C(\c1ccccc1)c1c2nc(c(-c3ccc([N+](=O)[O-])cc3)c3ccc([nH]3)c3ccc([nH]3)c(-c3ccc([N+](=O)[O-])cc3)c3ccc1[nH]3)C=C2
Activity (NCI-H1299 [1]): Non-toxic | Activity [2]: 0.31 | IC50 [3]: 2110 nM | IC50 [4]: 2360 nM | Activity (A549 [5]): Non-toxic | Activity (A549 [9]): 48.37% | Activity (NCI-H1299 [10]): 51.15%

Activity [6]: 0.111 | Activity [7]: 0.211
Structure (SMILES): C/C(=N\NC(=O)c1ccccc1)c1c2nc(c(-c3ccccc3)c3ccc([nH]3)c3ccc([nH]3)c(-c3ccccc3)c3ccc1[nH]3)C=C2
Activity (NCI-H1299 [1]): Non-toxic | Activity [2]: 0.11 | IC50 [3]: 803 nM | IC50 [4]: 164 nM | Activity (A549 [5]): Non-toxic | Activity (A549 [9]): Non-toxic | Activity (NCI-H1299 [10]): Non-toxic

Activity (Mitochondrial membrane [17]): 47.7 | Activity (Mitochondrial membrane [23]): 1.7 | Activity (Mitochondrial membrane [25]): 39.7 | Activity (Mitochondrial membrane [32]): 4 | Activity [6]: 0.14 | Activity [7]: 0.267
Structure (SMILES): C/C(=N/NC(=O)OC(C)(C)C)c1c2nc(c(-c3ccccc3)c3ccc([nH]3)c3ccc([nH]3)c(-c3ccccc3)c3ccc1[nH]3)C=C2
Activity (A549 [11]): 18% | Activity (A549 [12]): 20.8% | Activity (A549 [13]): Active | Activity (NCI-H1299 [1]): Non-toxic | Activity (NCI-H1299 [14]): 69% | Activity (A549 [15]): 38% | Activity (NCI-H1299 [16]): >=75% | Activity (NCI-H1299 [18]): Active | Activity (NCI-H1299 [19]): Active | Activity [2]: 0.39 | Activity (A549 [20]): 21% | Activity (NCI-H1299 [21]): 57.9% | Activity (A549 [22]): 26.5% | Activity (A549 [24]): 17.5% | IC50 [3]: 94.9 nM | Activity (NCI-H1299 [26]): 20.1% | IC50 [4]: 25 nM | Activity (A549 [27]): Active | IC50 (A549 [28]): 373 nM | Activity (NCI-H1299 [29]): Active | Activity (NCI-H1299 [30]): 28.8% | Activity (A549 [31]): 35.5% | Activity (A549 [5]): Non-toxic | Activity (A549 [9]): Non-toxic | Activity (A549 [33]): 22.8% | Activity (NCI-H1299 [10]): Non-toxic

Continued, compound first:

Structure (SMILES): CC(C)(C)OC(=O)N/N=C(/c1ccccc1)c1c2nc(c(-c3ccc(O)cc3)c3ccc([nH]3)c3ccc([nH]3)c(-c3ccc(O)cc3)c3ccc1[nH]3)C=C2
Activity (NCI-H1299 [1]): Non-toxic | Activity [2]: 0.21 | IC50 [3]: 89.3 nM | IC50 [4]: 56.1 nM | Activity (A549 [5]): Non-toxic | Activity [6]: 0.118 | Activity [7]: 0.234

Structure (SMILES): C/C(=N\Nc1ccc([N+](=O)[O-])cc1[N+](=O)[O-])c1c2nc(c(-c3ccccc3)c3ccc([nH]3)c3ccc([nH]3)c(-c3ccccc3)c3ccc1[nH]3)C=C2
Activity (NCI-H1299 [1]): Non-toxic | Activity (A549 [5]): Non-toxic | Activity [8]: 0.002

Structure (SMILES): C/C(=N/NC(=O)OC(C)(C)C)c1c2nc(c(-c3ccc([N+](=O)[O-])cc3)c3ccc([nH]3)c3ccc([nH]3)c(-c3ccc([N+](=O)[O-])cc3)c3ccc1[nH]3)C=C2
Activity (NCI-H1299 [1]): Non-toxic | Activity [2]: 0.22 | IC50 [3]: 748 nM | IC50 [4]: 310 nM | Activity (A549 [5]): Non-toxic | Activity [8]: 0.195 | Activity (A549 [9]): 49.14% | Activity (NCI-H1299 [10]): 53.41%

Source: ChEMBL document CHEMBL6087389, “Hydrazone-Functionalized trans-A2B-Corroles: Effective Synergy in Photodynamic Therapy of Lung Cancer” (J Med Chem, 2024)
